Test system: MCF-7 cells
Assay: In vivo tumor growth inhibition (TGI), MCF-7 cells implanted subcutaneously in NSG mice
Set-up: species or system NOD Scid Gamma (NSG) mice
Conditions: for ranking of combinatorial benefit in vivo: combined with SGN-LIV1A, doses of Table 2, nab-paclitaxel 10 mg/kg; for Expected combination TGI: expected additive; for Combinatorial benefit: observed minus expected combination TGI; for TGI: single agent
Method: NOD Scid Gamma (NSG) mice were obtained from Jackson Laboratory and implanted with 17-β-estradiol pellet (Innovative Research of America; Sarasota, Fla.) one day prior to cell implant. Five million MCF-7 cells were implanted subcutaneously with Matrigel (BD Biosciences; Franklin Lakes, N.J.) and tumor volume was determined by a digital caliper twice a week, using the formula: volume=½×length width^2.
Mice received treatments when the average tumor volume reached 100 mm^3. The treatment regimen for each agent was: doxorubicin, 1 mg/kg q4dx3 intravenous (IV); SGN-LIV1, 1 mg/kg q4dx4 intraperitoneal (IP); […]; carboplatin 10 mg/kg q7dx3 IP; cyclophosphamide, 40 mg/kg q7dx3 IV; gemcitabine 20 mg/kg q7dx2 IP; and paclitaxel 10 mg/kg q3dx5 IP. Combination groups received the first dose of SGN-LIV1A and combination drug on the same day. n=6 for each group. The effects of each drug and their combination on tumor growth were plotted in FIGS. 6-8.
To determine the combined benefit in vivo, tumor growth inhibition (TGI) was compared using the area under the curve between untreated, single agent groups, and combined groups on the date the untreated animals were euthanized (Table 2). […] Thus, the expected additive TGI for combination is […].

[1] = named drug 1 mg/kg combined with 1 mg/kg SGN-LIV1A
[2] = dose 1 mg/kg, AUC vs untreated on the date untreated animals were euthanized
[3] = named drug 20 mg/kg combined with 1 mg/kg SGN-LIV1A
[4] = named drug 40 mg/kg combined with 1 mg/kg SGN-LIV1A
[5] = named drug 10 mg/kg combined with 1 mg/kg SGN-LIV1A

## COc1cccc2c1C(=O)c1c(O)c3c(c(O)c1C2=O)C[C@@](O)(C(=O)CO)C[C@@H]3O[C@H]1C[C@H](N)[C@H](O)[C@H](C)O1 [doxorubicin]
  ranking of combinatorial benefit in vivo: highest combinatorial benefit
[1]
  Observed combination TGI: 75%
  Expected combination TGI: 55%
Named drug 1 mg/kg with 1 mg/kg SGN-LIV1A
  Combinatorial benefit: 20%
[2]
  TGI: 26%

## Nc1ccn([C@@H]2O[C@H](CO)[C@@H](O)C2(F)F)c(=O)n1 [gemcitabine]
[3]
  Observed combination TGI: 54%
  Expected combination TGI: 51%
Named drug 20 mg/kg when combined with SGN-LIV1A
  combined effect in vivo: nearly additive
Named drug 20 mg/kg with 1 mg/kg SGN-LIV1A
  Combinatorial benefit: 3%
Dose 20 mg/kg, AUC vs untreated
  TGI: 20%

## O=P1(N(CCCl)CCCl)NCCCO1 (centres unmarked) [cyclophosphamide]
[4]
  Observed combination TGI: 39%
  Expected combination TGI: 45%
Named drug 40 mg/kg with 1 mg/kg SGN-LIV1A
  Combinatorial benefit: −6%
Dose 40 mg/kg, AUC vs untreated
  TGI: 10%

## N.N.O=C([O-])C1(C(=O)[O-])CCC1.[Pt+2] [carboplatin]
  ranking of combinatorial benefit in vivo: highest combinatorial benefit
[5]
  Observed combination TGI: 60%
  Expected combination TGI: 52%
Named drug 10 mg/kg with 1 mg/kg SGN-LIV1A
  Combinatorial benefit: 8%
Dose 10 mg/kg, AUC vs untreated
  TGI: 21%

B1: SGN-LIV1A: LIV-1-directed antibody-drug conjugate: humanized antibody hLIV22, valine-citrulline linker, monomethyl auristatin E; average of 4 MMAE per antibody (conjugate, chains of the INN, looked up)
VH: QVQLVQSGAEVKKPGASVKVSCKASGLTIEDYYMHWVRQAPGQGLEWMGWIDPENGDTEYGPKFQGRVTMTRDTSINTAYMELSRLRSDDTAVYYCAVHNAHYGTWFAYWGQGTLVTVSS
VL: DVVMTQSPLSLPVTLGQPASISCRSSQSLLHSSGNTYLEWYQQRPGQSPRPLIYKISTRFSGVPDRFSGSGSGTDFTLKISRVEAEDVGVYYCFQGSHVPYTFGGGTKVEIK
modifications: vedotin (vc-MMAE)
notes: LIV-1-directed antibody-drug conjugate: humanized antibody hLIV22, valine-citrulline linker, monomethyl auristatin E; average of 4 MMAE per antibody
[2]
  TGI: 39%

— patent US11325980B2, “Combination therapy using a LIV1-ADC and a chemotherapeutic” (SEATTLE GENETICS, INC., priority 2016, dated 2022)
